Columns and labels:
[1] = molecular target: T1, Carboxypeptidase B2 (Homo sapiens, UniProt Q96IY4)
T1 sequence (Q96IY4 whole entry): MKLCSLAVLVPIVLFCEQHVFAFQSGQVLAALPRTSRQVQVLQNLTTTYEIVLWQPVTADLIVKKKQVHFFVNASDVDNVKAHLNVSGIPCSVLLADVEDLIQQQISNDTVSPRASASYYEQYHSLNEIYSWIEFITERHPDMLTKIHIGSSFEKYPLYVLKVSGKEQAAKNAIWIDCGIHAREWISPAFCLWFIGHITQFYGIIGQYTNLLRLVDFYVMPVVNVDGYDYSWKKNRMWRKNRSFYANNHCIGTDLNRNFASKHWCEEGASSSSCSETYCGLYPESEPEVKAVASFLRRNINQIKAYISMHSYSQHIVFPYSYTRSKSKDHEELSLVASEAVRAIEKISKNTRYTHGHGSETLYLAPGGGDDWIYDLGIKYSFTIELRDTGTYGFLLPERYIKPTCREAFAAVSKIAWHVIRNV
Description: Inhibition of activated human plasma TAFI incubated for 15 mins by chromogenic assay

[2] = molecular target: Urokinase-type plasminogen activator (Homo sapiens) (UniProt P00749); assay: Inhibition of urokinase (unknown origin) at 100 uM relative to control
[3] = molecular target: T2, Complement C1s subcomponent (Homo sapiens) (UniProt P09871); assay: Inhibition of C1s (unknown origin) at 100 uM relative to control
T2 sequence (whole entry): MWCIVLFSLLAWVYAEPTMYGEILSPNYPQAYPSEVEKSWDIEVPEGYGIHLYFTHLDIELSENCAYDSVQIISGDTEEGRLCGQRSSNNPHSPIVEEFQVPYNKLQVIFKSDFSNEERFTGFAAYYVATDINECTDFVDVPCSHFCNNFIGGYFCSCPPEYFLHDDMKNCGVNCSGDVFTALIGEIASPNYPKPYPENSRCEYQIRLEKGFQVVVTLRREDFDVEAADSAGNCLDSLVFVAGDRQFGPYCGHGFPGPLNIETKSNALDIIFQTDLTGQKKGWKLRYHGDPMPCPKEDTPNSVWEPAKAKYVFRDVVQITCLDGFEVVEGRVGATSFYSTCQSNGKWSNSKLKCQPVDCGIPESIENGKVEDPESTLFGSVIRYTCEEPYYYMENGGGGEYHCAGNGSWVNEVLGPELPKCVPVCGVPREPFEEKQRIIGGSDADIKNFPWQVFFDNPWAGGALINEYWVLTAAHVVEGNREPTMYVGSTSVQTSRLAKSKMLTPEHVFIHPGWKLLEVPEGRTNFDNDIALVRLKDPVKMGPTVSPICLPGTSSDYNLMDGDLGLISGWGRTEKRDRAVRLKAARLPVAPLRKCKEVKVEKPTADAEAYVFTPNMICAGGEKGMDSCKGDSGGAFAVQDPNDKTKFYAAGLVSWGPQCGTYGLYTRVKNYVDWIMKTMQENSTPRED

[4] = molecular target: T3, Coagulation factor VII (Homo sapiens) (UniProt P08709); assay: Inhibition of factor 7a (unknown origin) at 100 uM relative to control
T3 sequence (whole entry): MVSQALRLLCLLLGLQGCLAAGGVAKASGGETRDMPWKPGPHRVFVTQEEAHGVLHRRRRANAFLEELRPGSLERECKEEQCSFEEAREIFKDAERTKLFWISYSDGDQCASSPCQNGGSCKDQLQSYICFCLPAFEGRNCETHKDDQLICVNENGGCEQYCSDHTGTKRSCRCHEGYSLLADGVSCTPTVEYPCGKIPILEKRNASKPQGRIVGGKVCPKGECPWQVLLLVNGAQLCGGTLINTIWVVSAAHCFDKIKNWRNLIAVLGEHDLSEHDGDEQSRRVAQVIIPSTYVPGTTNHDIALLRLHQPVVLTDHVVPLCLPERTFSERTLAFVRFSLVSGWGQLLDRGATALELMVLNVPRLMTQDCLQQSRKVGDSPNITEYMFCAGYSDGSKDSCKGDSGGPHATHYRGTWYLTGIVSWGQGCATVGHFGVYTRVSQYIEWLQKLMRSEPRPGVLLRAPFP

[5] = molecular target: Plasminogen (Homo sapiens) (UniProt P00747); assay: Inhibition of plasmin (unknown origin) at 100 uM relative to control
Chain of Plasminogen (Homo sapiens) (P00747 97-580 limits assumed): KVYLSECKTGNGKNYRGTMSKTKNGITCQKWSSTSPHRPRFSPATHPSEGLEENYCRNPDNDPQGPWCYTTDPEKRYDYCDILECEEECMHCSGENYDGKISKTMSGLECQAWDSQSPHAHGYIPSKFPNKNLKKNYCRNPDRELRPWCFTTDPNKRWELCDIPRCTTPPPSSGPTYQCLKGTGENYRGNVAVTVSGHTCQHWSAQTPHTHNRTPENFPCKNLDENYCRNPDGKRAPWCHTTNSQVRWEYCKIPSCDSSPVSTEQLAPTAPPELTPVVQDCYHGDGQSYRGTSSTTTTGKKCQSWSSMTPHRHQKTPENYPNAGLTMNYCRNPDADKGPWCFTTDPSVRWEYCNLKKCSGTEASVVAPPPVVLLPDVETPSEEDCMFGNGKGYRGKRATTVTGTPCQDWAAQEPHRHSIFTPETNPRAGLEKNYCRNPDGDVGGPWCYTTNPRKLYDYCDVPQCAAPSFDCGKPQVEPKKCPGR
Chain of Plasminogen (Homo sapiens) (P00747 581-810 limits assumed): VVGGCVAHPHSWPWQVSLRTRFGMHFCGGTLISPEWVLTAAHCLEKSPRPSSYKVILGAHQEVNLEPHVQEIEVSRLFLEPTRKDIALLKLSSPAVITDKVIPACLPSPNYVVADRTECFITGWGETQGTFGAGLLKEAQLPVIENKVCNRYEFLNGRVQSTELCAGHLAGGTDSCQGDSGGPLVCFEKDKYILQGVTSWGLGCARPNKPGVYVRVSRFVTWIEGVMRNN

[6] = organism: Homo sapiens; assay: Inhibition of tryptase (unknown origin) at 100 uM relative to control
[7] = molecular target: Tissue-type plasminogen activator (Homo sapiens) (UniProt P00750); assay: Inhibition of tPA (unknown origin) at 100 uM relative to control
Chain of Tissue-type plasminogen activator (Homo sapiens) (P00750 36-562 limits assumed): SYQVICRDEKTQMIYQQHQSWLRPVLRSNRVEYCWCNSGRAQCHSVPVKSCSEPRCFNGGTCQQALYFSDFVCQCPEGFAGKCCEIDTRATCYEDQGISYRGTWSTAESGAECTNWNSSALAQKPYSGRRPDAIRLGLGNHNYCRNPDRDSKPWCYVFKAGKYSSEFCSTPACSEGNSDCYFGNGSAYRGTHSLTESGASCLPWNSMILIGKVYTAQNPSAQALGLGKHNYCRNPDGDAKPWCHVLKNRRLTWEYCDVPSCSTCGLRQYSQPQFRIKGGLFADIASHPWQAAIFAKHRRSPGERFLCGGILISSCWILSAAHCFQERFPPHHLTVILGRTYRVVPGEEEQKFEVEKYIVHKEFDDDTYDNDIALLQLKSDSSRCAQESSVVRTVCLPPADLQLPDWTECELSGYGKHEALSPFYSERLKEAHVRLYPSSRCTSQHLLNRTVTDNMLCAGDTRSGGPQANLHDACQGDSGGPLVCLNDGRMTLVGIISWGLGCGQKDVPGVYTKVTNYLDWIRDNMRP

[8] = molecular target: T4, Coagulation factor XII (Homo sapiens) (UniProt P00748); assay: Inhibition of factor 12a (unknown origin) at 100 uM relative to control
T4 sequence (whole entry): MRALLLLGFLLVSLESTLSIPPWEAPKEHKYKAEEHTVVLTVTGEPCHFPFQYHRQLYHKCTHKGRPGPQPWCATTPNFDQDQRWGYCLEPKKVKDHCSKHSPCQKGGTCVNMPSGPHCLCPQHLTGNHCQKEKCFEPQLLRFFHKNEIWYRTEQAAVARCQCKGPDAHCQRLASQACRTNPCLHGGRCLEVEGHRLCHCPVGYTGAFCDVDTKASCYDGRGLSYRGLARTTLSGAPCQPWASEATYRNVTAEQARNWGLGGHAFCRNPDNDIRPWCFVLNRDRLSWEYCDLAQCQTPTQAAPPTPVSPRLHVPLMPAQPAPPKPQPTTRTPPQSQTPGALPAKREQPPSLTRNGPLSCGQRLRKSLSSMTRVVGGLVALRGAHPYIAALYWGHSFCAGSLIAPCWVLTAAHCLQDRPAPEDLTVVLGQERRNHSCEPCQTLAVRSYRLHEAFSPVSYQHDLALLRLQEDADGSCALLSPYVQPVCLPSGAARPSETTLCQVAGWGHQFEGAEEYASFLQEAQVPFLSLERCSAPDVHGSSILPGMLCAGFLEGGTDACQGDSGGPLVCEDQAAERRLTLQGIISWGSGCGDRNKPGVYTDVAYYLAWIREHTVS

[9] = molecular target: Coagulation factor XI (Homo sapiens) (UniProt P03951); assay: Inhibition of factor 11a (unknown origin) at 100 uM relative to control
Chain of Coagulation factor XI (Homo sapiens) (P03951 19-387 limits assumed): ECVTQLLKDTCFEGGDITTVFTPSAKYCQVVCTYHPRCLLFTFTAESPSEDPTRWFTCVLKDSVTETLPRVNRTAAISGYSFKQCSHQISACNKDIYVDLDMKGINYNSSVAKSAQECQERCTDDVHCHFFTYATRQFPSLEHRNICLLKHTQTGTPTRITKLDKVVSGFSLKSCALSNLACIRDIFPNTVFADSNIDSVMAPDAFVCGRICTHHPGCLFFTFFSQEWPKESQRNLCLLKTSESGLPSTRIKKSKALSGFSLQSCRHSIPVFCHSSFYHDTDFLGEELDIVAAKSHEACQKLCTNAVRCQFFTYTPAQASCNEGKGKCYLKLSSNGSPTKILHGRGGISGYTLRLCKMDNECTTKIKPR
Chain of Coagulation factor XI (Homo sapiens) (P03951 388-625 limits assumed): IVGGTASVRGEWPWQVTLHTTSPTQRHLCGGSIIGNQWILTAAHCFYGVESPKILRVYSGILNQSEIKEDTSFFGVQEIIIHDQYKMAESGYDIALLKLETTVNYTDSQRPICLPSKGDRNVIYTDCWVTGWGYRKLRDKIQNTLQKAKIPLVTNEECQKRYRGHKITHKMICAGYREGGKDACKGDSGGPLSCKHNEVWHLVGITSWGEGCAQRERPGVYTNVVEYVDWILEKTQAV

[10] = molecular target: Coagulation factor X (Homo sapiens) (UniProt P00742); assay: Inhibition of factor 10a (unknown origin) at 100 uM relative to control
Chain of Coagulation factor X (Homo sapiens) (P00742 41-179 limits assumed): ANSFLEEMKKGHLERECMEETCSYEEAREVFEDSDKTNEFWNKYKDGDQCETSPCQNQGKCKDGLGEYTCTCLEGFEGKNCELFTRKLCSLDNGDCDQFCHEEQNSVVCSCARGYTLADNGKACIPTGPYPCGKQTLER
Chain of Coagulation factor X (Homo sapiens) (P00742 235-488 limits assumed): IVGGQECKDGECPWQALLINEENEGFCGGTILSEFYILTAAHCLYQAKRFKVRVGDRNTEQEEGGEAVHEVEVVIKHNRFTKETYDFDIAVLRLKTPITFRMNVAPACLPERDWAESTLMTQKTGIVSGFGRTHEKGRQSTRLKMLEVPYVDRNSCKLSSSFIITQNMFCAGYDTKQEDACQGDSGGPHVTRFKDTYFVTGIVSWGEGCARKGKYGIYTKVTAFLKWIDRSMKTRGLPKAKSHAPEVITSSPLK

[11] = molecular target: Plasma kallikrein (Homo sapiens) (UniProt P03952); details: 100 uM
Chain of Plasma kallikrein (Homo sapiens) (P03952 20-390 limits assumed): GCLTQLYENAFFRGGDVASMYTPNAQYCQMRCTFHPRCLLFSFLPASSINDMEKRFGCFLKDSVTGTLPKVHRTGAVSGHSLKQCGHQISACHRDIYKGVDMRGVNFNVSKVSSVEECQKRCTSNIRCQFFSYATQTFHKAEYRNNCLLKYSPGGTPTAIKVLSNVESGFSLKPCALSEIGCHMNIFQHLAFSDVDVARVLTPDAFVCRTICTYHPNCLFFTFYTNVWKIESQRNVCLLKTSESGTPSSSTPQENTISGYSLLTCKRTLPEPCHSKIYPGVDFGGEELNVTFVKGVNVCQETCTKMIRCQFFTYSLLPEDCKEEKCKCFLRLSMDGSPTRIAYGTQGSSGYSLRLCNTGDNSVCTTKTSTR
Chain of Plasma kallikrein (Homo sapiens) (P03952 391-638 limits assumed): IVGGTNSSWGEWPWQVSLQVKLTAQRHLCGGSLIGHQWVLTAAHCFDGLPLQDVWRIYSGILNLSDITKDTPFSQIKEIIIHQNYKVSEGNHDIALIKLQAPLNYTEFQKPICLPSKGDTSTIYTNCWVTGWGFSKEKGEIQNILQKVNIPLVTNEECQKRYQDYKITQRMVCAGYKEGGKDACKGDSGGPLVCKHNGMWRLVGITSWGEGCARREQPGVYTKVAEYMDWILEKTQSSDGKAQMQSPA
Description: Inhibition of KLKB1 (unknown origin) at 100 uM relative to control

[12] = molecular target: Prothrombin (Homo sapiens) (UniProt P00734); assay: Inhibition of factor 2a (unknown origin) at 100 uM relative to control
[13] = organism: Homo sapiens; assay: Inhibition of trypsin (unknown origin) at 100 uM relative to control
[14] = Volume distribution at steady state in Sprague-Dawley rat at 1 mg/kg, iv administered as bolus dose measured up to 24 hrs; format: ADME, organism-based; details: in vivo, read-out: Vdss
[15] = Initial plasma concentration in Sprague-Dawley rat at 1 mg/kg, iv administered as bolus dose measured up to 4 hrs; format: ADME, organism-based
[16] = Drug excretion in Sprague-Dawley rat urine at 1 mg/kg, iv administered as bolus dose after 24 hrs; format: ADME, organism-based; details: read-out: Drug excretion
[17] = Clearance in Sprague-Dawley rat at 1 mg/kg, iv administered as bolus dose measured up to 24 hrs; format: ADME, organism-based; details: in vivo
[18] = Terminal half life in Sprague-Dawley rat at 1 mg/kg, iv administered as bolus dose measured up to 24 hrs; format: ADME, organism-based; details: in vivo, read-out: beta t1/2 (converted)

SMILES: CC1(C)C2CCC1(C)[C@@H](NC(=O)[C@H](CC1CCCCC1)NC(=O)N[C@@H](CCCCN)C(=O)O)C2 (stereo partly drawn)
- IC50 [1]: 0.003 µM

SMILES: CC1(C)[C@@H]2CC[C@@]1(C)[C@@H](NC(=O)[C@H](CC1CCCCC1)NS(=O)(=O)N[C@@H](CCCC(N)=O)C(=O)O)C2
- IC50 [1]: > 30 µM

SMILES: CC1(C)[C@@H]2CC[C@@]1(C)[C@@H](NC(=O)[C@H](CC1CCCCC1)NS(=O)(=O)N[C@@H](CC1CCC(N)CC1)C(=O)O)C2 (stereo partly drawn)
- IC50 [1]: > 30 µM

SMILES: NCCCC[C@H](NS(=O)(=O)N[C@H](C(=O)NC12CC3CC(CC(C3)C1)C2)c1ccccc1)C(=O)O
- IC50 [1]: > 30 µM

SMILES: CC1(C)[C@@H]2CC[C@@]1(C)[C@@H](NC(=O)[C@H](CC1CCCCC1)NS(=O)(=O)N[C@@H](CCCCN)C(=O)O)C2 [listing 1 of 2 here]
- inhibition [2]: < 40%
- inhibition [3]: < 40%
- inhibition [4]: < 40%
- inhibition [5]: < 40%
- inhibition [6]: < 40%
- inhibition [7]: < 40%
- inhibition [8]: < 40%
- inhibition [9]: < 40%
- inhibition [10]: < 40%
- inhibition [11]: < 40%
- inhibition [12]: < 40%
- inhibition [13]: < 40%

SMILES: CC(=O)NCCCC[C@H](NS(=O)(=O)N[C@@H](CC1CCCCC1)C(=O)N[C@H]1C[C@H]2CC[C@]1(C)C2(C)C)C(=O)O
- IC50 [1]: > 30 µM

SMILES: CC(C)[C@H](NS(=O)(=O)N[C@@H](CCCCN)C(=O)O)C(=O)NC12CC3CC(CC(C3)C1)C2
- IC50 [1]: > 30 µM

SMILES: CC1(C)[C@@H]2CC[C@@]1(C)[C@@H](NC(=O)[C@H](CC1CCCCC1)NS(=O)(=O)N[C@@H](CCCCN)C(=O)O)C2 [listing 2 of 2 here]
- Vd [14]: 0.38 L/kg
- C0 at 4 h [15]: 3800 ng/mL
- dose excreted at 24 h [16]: 4%
- clearance [17]: 11.7 mL/min/kg
- half-life [18]: 1.7 h
